Experiment [1] can be described thus: Inhibition of rice alpha-glucosidase assessed as reduction in production of D-glucose using disaccharides as substrate incubated for 10 to 30 mins. More on the design: species or system Oryza sativa.
In experiment [2] the target is T1, Sucrase-isomaltase, intestinal (Rattus norvegicus, UniProt P23739). Briefly: Inhibition of rat small intestinal brush border membrane sucrase assessed as reduction in production of D-glucose using disaccharides as substrate incubated for 10 to 30 mins.
T1 sequence (P23739 1-1013 limits assumed): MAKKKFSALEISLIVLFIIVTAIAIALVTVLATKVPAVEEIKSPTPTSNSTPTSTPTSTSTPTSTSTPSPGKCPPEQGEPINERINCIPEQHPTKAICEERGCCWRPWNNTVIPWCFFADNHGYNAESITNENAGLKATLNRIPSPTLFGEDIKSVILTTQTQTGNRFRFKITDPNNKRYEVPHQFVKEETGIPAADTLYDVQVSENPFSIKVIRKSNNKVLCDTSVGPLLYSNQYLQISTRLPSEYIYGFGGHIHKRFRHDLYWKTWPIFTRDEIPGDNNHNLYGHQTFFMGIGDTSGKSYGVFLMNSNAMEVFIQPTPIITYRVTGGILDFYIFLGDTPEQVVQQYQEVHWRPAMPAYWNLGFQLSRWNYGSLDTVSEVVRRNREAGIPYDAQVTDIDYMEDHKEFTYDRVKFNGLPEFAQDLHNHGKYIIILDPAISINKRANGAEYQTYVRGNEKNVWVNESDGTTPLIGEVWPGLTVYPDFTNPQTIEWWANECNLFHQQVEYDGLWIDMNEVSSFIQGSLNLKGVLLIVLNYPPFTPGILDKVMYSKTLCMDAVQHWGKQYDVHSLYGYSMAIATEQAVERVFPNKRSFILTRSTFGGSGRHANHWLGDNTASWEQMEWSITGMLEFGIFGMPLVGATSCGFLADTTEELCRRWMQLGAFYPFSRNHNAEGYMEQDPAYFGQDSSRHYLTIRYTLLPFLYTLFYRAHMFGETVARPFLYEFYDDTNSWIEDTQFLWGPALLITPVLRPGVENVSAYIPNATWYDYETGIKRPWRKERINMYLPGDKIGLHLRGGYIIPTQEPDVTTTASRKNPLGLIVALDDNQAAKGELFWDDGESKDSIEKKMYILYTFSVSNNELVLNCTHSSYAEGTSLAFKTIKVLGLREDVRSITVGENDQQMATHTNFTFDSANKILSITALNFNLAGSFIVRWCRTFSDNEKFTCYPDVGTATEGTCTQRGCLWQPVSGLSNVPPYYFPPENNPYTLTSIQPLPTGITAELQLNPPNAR
T1 sequence (P23739 1014-1841 limits assumed): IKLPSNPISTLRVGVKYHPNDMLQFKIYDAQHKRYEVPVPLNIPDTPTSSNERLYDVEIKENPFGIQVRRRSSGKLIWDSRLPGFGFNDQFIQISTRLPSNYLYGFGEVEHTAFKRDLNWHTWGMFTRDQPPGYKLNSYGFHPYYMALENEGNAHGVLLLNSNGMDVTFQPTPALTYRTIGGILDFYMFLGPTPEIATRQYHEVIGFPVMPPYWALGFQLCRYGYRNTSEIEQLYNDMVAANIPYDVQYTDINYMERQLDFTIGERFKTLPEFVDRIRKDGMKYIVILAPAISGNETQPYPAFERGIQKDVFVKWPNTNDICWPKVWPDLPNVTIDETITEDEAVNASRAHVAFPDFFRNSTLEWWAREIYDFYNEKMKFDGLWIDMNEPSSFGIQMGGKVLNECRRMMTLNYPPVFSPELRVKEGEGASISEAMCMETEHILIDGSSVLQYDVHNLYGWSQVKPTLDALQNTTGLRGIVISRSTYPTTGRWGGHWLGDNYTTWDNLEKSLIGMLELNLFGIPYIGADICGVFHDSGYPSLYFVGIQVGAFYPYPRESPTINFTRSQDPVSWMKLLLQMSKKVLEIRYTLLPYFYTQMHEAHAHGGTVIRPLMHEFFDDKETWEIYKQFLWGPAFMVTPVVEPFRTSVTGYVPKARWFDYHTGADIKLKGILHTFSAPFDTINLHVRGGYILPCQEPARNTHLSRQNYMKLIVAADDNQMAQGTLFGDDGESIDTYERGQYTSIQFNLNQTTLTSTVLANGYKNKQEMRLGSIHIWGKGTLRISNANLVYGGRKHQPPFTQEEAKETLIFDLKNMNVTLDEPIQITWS
Experiment [3] concerns the target T1, Sucrase-isomaltase, intestinal. The experiment is described as follows: Inhibition of rat small intestinal brush border membrane isomaltase assessed as reduction in production of D-glucose using disaccharides as substrate incubated for 10 to 30 mins.
Experiment [4] in a line: Inhibition of rat small intestinal brush border membrane maltase assessed as reduction in production of D-glucose using maltose as substrate incubated for 10 to 30 mins.
Experiment [5] is described as follows: Inhibition of rat small intestinal brush border membrane cellobiase assessed as reduction in production of D-glucose using disaccharides as substrate incubated for 10 to 30 mins.
The nature of experiment [6]: Inhibition of almond beta-glucosidase assessed as reduction in production of D-glucose using disaccharides as substrate incubated for 10 to 30 mins. More on the design: species or system Prunus dulcis.

Consider `O=c1cc(C(F)(F)F)c2ccc(OCCCCn3cc(CCCCN4C[C@H](O)[C@@H](O)[C@H](O)[C@H]4CO)nn3)cc2o1`, for which the half-inhibitory concentration (IC50) was 57 nM in experiment [1]; 950 nM in experiment [2]; 4.1 µM in experiment [3]; 540 nM in experiment [4]; 219 µM in experiment [5]; 3.8 µM in experiment [6].

As to `O=c1ccc2nc3ccc(OCCCCn4cc(CCCCN5C[C@H](O)[C@@H](O)[C@H](O)[C@H]5CO)nn4)cc3oc-2c1`, the IC50 in experiment [1] turned out to be 2100 nM; in experiment [2], 2700 nM; in experiment [3], 6.3 µM; in experiment [4] it was 650 nM; in experiment [5], 175 µM.

Take `CCN(CC)c1ccc2cc(C(=O)NCCOCCOCCOCCn3cc(CCCCN4C[C@H](O)[C@@H](O)[C@H](O)[C@H]4CO)nn3)c(=O)oc2c1`: the IC50 stood at 110 nM in experiment [1]; 1400 nM in experiment [2]; 13.6 µM in experiment [3]; 100 nM in experiment [4]; 304 µM in experiment [5].

Consider `Cc1cc(=O)oc2cc(OCCCCn3cc(CCCCN4C[C@H](O)[C@@H](O)[C@H](O)[C@H]4CO)nn3)ccc12`, for which the 50% inhibitory concentration (IC50) in experiment [1] was 42 nM; in experiment [2] it was 540 nM; in experiment [3], 1.4 µM; in experiment [4] it was 150 nM; in experiment [5], 53.6 µM; in experiment [6], 9.3 µM.

On to `CN(C)c1cccc2c(S(=O)(=O)NCCOCCn3cc(CCCCN4C[C@H](O)[C@@H](O)[C@H](O)[C@H]4CO)nn3)cccc12`, for which the IC50 in experiment [1] came out at 91 nM; in experiment [2], 1900 nM; in experiment [3], 4.6 µM; in experiment [4], 910 nM; in experiment [5] it was 414 µM; in experiment [6] it was 97.8 µM.

On to `OC[C@H]1NC[C@H](O)[C@@H](O)[C@@H]1O` [DUVOGLUSTAT], for which the IC50 turned out to be 50 nM in experiment [1], 327 µM in experiment [5] and 85 µM in experiment [6].

As for `OCCN1C[C@H](O)[C@@H](O)[C@H](O)[C@H]1CO` [MIGLITOL], the IC50 in experiment [1] was found to be 99 nM; in experiment [4], 590 nM; in experiment [5], 164 µM; in experiment [6], 378 µM.

The term IC50 denotes the midpoint of a concentration-inhibition curve.

These data come from ChEMBL document CHEMBL3872266, “Synthesis and characterization of novel, conjugated, fluorescent DNJ derivatives for α-glucosidase recognition” (Bioorg Med Chem, 2017).
